Reference: US20240094197A1, “Method for removing protein corona of the surface of nanometer particle” (ZHEJIANG UNIVERSITY, priority 2022, published 2024)
Where two headings read alike, the source gives them in different places.

Assays:
[1] = tested on: 3D multicellular tumor spheroids of BxPC3; test: Penetration in tumor spheroids (CLSM); format: cell-based, human; conditions: EXO1 20 μM pretreatment
Experimental: The 3D multicellular tumor spheroids of BxPC3 pretreated with or without exocytosis inhibitor EXO1 (20 μM) were transferred to a confocal dish containing fresh serum-free medium. The mixture of Cy5-labeled LPGL, PGL, LGL or GL liposome (equivalent to fluorescent lipids of 60 μg/mL, 30 μL) and fresh serum-containing medium were added, and treated with ultrasound stimulation (acoustic intensity: 2 W/cm^2, frequency: 3 MHz, duty cycle: 50%, duration time: 5 min), then incubated for 6 h. After washing with PBS, images were obtained with CLSM in XYZ-3D-stack at 25-μm intervals from apex to equator.

BxPC3 cells [2] = test: Transcytosis transport in tumor cells; format: cell-based, human; conditions: BxPC3 cells pretreated with EXO1 20 μM; serum-containing medium, with ultrasound stimulation
Experimental: BxPC3 cells (1×10^5 cells/mL, 1 mL) were cultured in a confocal dish for 24 h, and the culture medium was then replaced with 1 mL fresh serum-free medium. Next, the mixture of Cy5-labeled GL, LGL, PGL or LPGL liposome (equivalent to fluorescent lipids of 60 μg/mL, 20 μL) and serum-containing medium or serum-free medium was respectively added into the confocal dish, and subsequently treated with or without ultrasound stimulation (acoustic intensity: 2 W/cm^2, frequency: 3 MHz, duty cycle: 50%, duration time: 5 min). After incubation of 3 h, the dishes were washed twice with PBS. A total of 1×10^5 fresh cells in 1 mL of fresh serum-free medium was added to the dishes. The mixed cells were continuously incubated for 0 min, 30 min, and 120 min. The transcellular transport of liposome from previously added cells to newly added cells was photographed at incubation time of 0 min, 30 min, and 120 min with a CLSM using 640 nm excitation wavelength. Then the newly added cells at 120 min of incubation were washed away and collected into a centrifugal tube, and detected using flow cytometry. Meanwhile, BxPC3 cells pretreated with an exocytosis inhibitor EXO1 (20 μM) were tested using the same method to investigate the inhibition of transcellular transport.

BxPC3 cells [3] = test: Endocytic pathway in tumor cells (endocytosis inhibitors); format: cell-based, human; conditions: chlorpromazine 50 μM, genistein 200 μM, wortmannin 5 μM, cytochalasin D 5 μM; for inhibition rate on the endocytosis of LPGL in BxPC3 cells: serum-containing medium; for inhibition at 50 µM / inhibition at 5 µM / inhibition at 200 µM: Homo sapiens
Experimental: BxPC3 cells (1×10^5 cells/mL, 1 mL) were cultured in 12-well plates for 24 h, and the culture medium was then replaced with 1 mL fresh serum-free medium. Chlorpromazine (50 μM, clathrin-mediated endocytosis inhibitor), genistein (200 μM, caveolae-mediated endocytosis inhibitor), wortmannin (5 μM, phosphatidylinositol 3-kinases-mediated macropinocytosis inhibitor), or cytochalasin D (5 μM, actin-polymerization inhibitor) was added to the medium for 2 h of incubation. Another group of BxPC3 cells without any endocytosis inhibitor treatment was cultured for 2 h as the control group. Next, the mixture of Cy5-labeled LPGL liposome (equivalent to fluorescent lipids of 60 μg/mL, 20 μL) and serum-containing medium or serum-free medium was respectively added into the plate, and subsequently treated with or without ultrasound stimulation (acoustic intensity: 2 W/cm^2, frequency: 3 MHz, duty cycle: 50%, duration time: 5 min). After incubation of 3 h, cells were washed, digested and collected into a centrifugal tube, and the mean fluorescence intensity was detected by flow cytometry.

[4] = tested on: human-derived tumor xenograft of PDA; test: In vivo antitumor activity (PDA model); design: species or system BALB/c nude mice
Experimental: BALB/c nude mice bearing human-derived tumor xenograft of PDA in the subcutaneous region were selected and grouped into seven groups (n=6). Each group was intravenously injected with LPGL liposome dispersion (dose equivalent to GEM 10 mg/kg), PGL liposome dispersion (dose equivalent to GEM 10 mg/kg), LGL liposome dispersion (dose equivalent to GEM 10 mg/kg), GL liposome dispersion (dose equivalent to GEM 10 mg/kg), GEM PBS7.4 dispersion (dose equivalent to GEM 10 mg/kg), LPL liposome dispersion or PBS 7.4 buffer respectively every two days for a total of four times. The 16th day was the first time of intravenous injection administration. The tumor site of each group was treated with ultrasound stimulation (acoustic intensity: 2 W/cm^2, frequency: 3 MHz, duty cycle: 50%, duration time: 20 min) after post-injection. The width and length of the tumors and the bodyweight of mice were measured during the treatment. At the end of the experiment at 36 days, the blood was collected, then mice were euthanized, tumors were dissected and weighed. The therapeutic efficacy was evaluated by comparing tumor size in the experimental group and control group. The tumor inhibition rate=100%×(mean tumor weight of PBS group−mean tumor weight of experimental group)/mean tumor weight of PBS group. The dissected tumors were fixed with 4% neutral buffered paraformaldehyde and embedded in paraffin. Tissue sections of 5-μm thick were mounted onto glass slides and stained with hematoxylin-eosin (H&E), and then examined by light microscopy. The immunohistochemistry staining of Ki67 was tested to investigate the percentage of proliferous tumor cells positively stained in the examined field. Tissue sections were subjected to Ki67 staining using the Ki67-antibody Assay Kit according to the manufacturer's protocol. Apoptotic cells were also identified using TUNEL Apoptosis Assay Kit and examined using CLSM

[5] = tested on: 3D multicellular tumor spheroids of BxPC3; test: Morphology and apoptosis of tumor spheroids (light microscope, TUNEL staining); format: cell-based, human; conditions: equivalent to GEM 0.1 μM, serum-containing medium, ultrasound stimulation, 72 h
Experimental: The method for inhibiting 3D multicellular tumor spheroids of BxPC3 with free GEM and different liposomes is as follows: the mixture of LPGL, PGL, LGL, GL liposome, free gemcitabine (GEM) or PBS and serum-containing medium was incubated with 3D multicellular tumor spheroids of BxPC3 at the final testing concentrations (equivalent to GEM: 0.1 μM), and treated with ultrasound stimulation (acoustic intensity: 2 W/cm^2, frequency: 3 MHz, duty cycle: 50%, duration time: 5 min), then incubated for 72 h, the morphology of 3D multicellular tumor spheroids of BxPC3 in different treatment group was observed using light microscope and TUNEL staining, scale bar=500 μm. […] (10E) The mean integrated optical density (IOD) of fluorescence in two inner layers of 75 μm and 100 μm (as shown in FIG. 10 D) in 3D multicellular tumor spheroids of BxPC3 was analyzed using Image-pro Plus 6.0 software to evaluate the penetration ability of liposome.
The cytotoxicity of the liposome was tested on the three-dimensional (3D) multicellular tumor spheroids of BxPC3 or Huh7. […] The sample plates were then detected using a plate reader at 530 nm excitation and 590 nm emission to obtain fluorescence intensity readouts. In addition, apoptosis induced by the liposome in spheroids were further determined by the TdT-mediated dUTP nick end labeling (TUNEL) assay, and the positive TUNEL-staining cells were examined by CLSM.

[6] = tested on: human-derived tumor xenograft of HCC; test: In vivo antitumor activity and toxicity (HCC model); design: species or system BALB/c nude mice
Experimental: The study of liposome and its characteristics and anti-tumor activity in Example 2 was the same as that in Example 1. The difference was that LPGL liposome and LGL liposome were prepared by replacing DSPE-PEG2000-RGD with DSPE-PEG2000-NGR. The DSPE-PEG2000-NGR refers to 1,2-distearoyl-sn-glycero-3-phosphoethanolamine-N-[methoxy (polyethylene glycol)-2000]-NGR targeting peptide, the amino acid sequence of NGR targeting peptide was Gly (glycine)-Gly (glycine)-Cys (cysteine)-Asn (asparagine)-Gly (glycine)-Arg (arginine)-Cys (cysteine) with the amino acid sequence GGCNGRC (SEQ ID NO: 2).
BALB/c nude mice bearing human-derived tumor xenograft of hepatocellular carcinoma (HCC) in the subcutaneous region were selected and grouped into six groups (n=9, wherein three mice of each group were selected to measure the accumulation content of gemcitabine triphosphate active metabolite (dFdCTP) in the tumor after 24 h of first intravenous injection). Same to the PDA model in the Example 1, after BALB/c nude mice subcutaneously bearing human-derived tumor xenograft of HCC were injected with free GEM PBS 7.4 buffer, GL liposome, NGR modified LGL liposome, PGL liposome, NGR modified LPGL liposome or PBS 7.4, the tumor site was treated with ultrasound stimulation (+US, acoustic intensity: 2 W/cm^2, frequency: 3 MHz, duty cycle: 50%, duration time: 20 min). At 24 h after firstly intravenous injection, the accumulation content of gemcitabine triphosphate active metabolite (dFdCTP) in the tumor was shown in FIG. 17B. As GEM could quickly be phosphorylated into its active metabolite of GEM triphosphate (dFdCTP) in tumor, so the dFdCTP was widely used as a quantitative index of GEM.
The tumor size and the bodyweight of mice in each group was shown in FIG. 17C, FIG. 17D, FIG. 17E and FIG. 17F. […] At the end of the 34-day experiment, the mice serum was sampled, and the content of alanine aminotransferase (ALT), aspartate aminotransferase (AST), creatinine (CRE) and blood urea nitrogen (BUN) in the serum was detected to evaluate the in vivo hepatic and renal toxicity (as shown in Table 4).

[7] = tested on: three-dimensional (3D) multicellular tumor spheroids of Huh7; test: Cytotoxicity on 3D multicellular tumor spheroids (Alamar Blue); format: cell-based, human; conditions: serum-containing medium, ultrasound stimulation, 72 h, equivalent to GEM 0~10 μM
Experimental: (§1) The cytotoxicity of the liposome was tested on the three-dimensional (3D) multicellular tumor spheroids of BxPC3 or Huh7. The tumor spheroids were established using the hanging drop method. The mixture of LPGL, PGL, LGL, GL or free gemcitabine (GEM) and serum-containing medium were respectively added into the wells containing three-dimensional (3D) multicellular tumor spheroids of BxPC3 or Huh7 at the final testing concentrations (equivalent to GEM: 0˜10 μM), and treated with ultrasound stimulation (acoustic intensity: 2 W/cm^2, frequency: 3 MHz, duty cycle: 50%, duration time: 5 min), then incubated for 72 h. Meanwhile, the LPL liposome with equimolar ratio to LPGL liposome was tested as a control. Afterward, the culture medium was replaced with a mixture of 90 μL fresh culture medium and 10 μL Alamar Blue Cell Viability Reagent, and was continuously incubated for 12 h. The sample plates were then detected using a plate reader at 530 nm excitation and 590 nm emission to obtain fluorescence intensity readouts. In addition, apoptosis induced by the liposome in spheroids were further determined by the TdT-mediated dUTP nick end labeling (TUNEL) assay, and the positive TUNEL-staining cells were examined by CLSM.

[8] = tested on: three-dimensional (3D) multicellular tumor spheroids of BxPC3; test: as above; format: cell-based, human; conditions: serum-containing medium, ultrasound stimulation, 72 h, equivalent to GEM 0~10 μM
Experimental: as §1

[9] = BXPC-3, serum-containing medium, with ultrasound stimulation, read-out: inhibition rate on the endocytosis of LPGL in BxPC3 cells
[10] = BXPC-3, serum-containing medium, without ultrasound stimulation, read-out: inhibition rate on the endocytosis of LPGL in BxPC3 cells
[11] = BXPC-3, serum-free medium, without ultrasound stimulation, read-out: inhibition rate on the endocytosis of LPGL liposome in BxPC3 cells
[12] = mice serum, end of the 34-day experiment, LGL and LPGL are NGR modified

SMILES: COC(=O)c1ccccc1NC(=O)c1ccc(F)cc1 [EXO1]
- effect on permeability of LPGL liposome into the 3D spheroid of BxPC3 [1]: could significantly inhibit the permeability of LPGL liposome
- effect on transcytosis transport of LPGL liposome (BxPC3 cells [2]): could be inhibited

SMILES: C=C1[C@@H](C)[C@H]2[C@H](Cc3ccccc3)NC(=O)[C@]23[C@H](OC(C)=O)/C=C/[C@@](C)(O)C(=O)[C@@H](C)C/C=C/[C@H]3[C@@H]1O [cytochalasin D]
- inhibition rate on the endocytosis of LPGL in BxPC3 cells (BxPC3 cells [3]; with ultrasound stimulation): 17.0%
- inhibition rate on the endocytosis of LPGL in BxPC3 cells (BxPC3 cells [3]; without ultrasound stimulation): 10.2%
- inhibition rate on the endocytosis of LPGL liposome in BxPC3 cells (BxPC3 cells [3]; serum-free medium, without ultrasound stimulation): 19.9%

SMILES: CN(C)CCCN1c2ccccc2Sc2ccc(Cl)cc21 [chlorpromazine]
- inhibition at 50 µM (BxPC3 cells [3]; [9]): 24.4%
- inhibition at 50 µM (BxPC3 cells [3]; [10]): 35.9%
- inhibition at 50 µM (BxPC3 cells [3]; [11]): 21.1%

SMILES: COC[C@H]1OC(=O)c2coc3c2[C@@]1(C)C1=C(C3=O)[C@@H]2CCC(=O)[C@@]2(C)C[C@H]1OC(C)=O [wortmannin]
- inhibition at 5 µM (BxPC3 cells [3]; BXPC-3, read-out: inhibition rate on the endocytosis of LPGL in BxPC3 cells, serum-containing medium, with ultrasound stimulation): 24.8%
- inhibition at 5 µM (BxPC3 cells [3]; BXPC-3, read-out: inhibition rate on the endocytosis of LPGL in BxPC3 cells, serum-containing medium, without ultrasound stimulation): 23.5%
- inhibition at 5 µM (BxPC3 cells [3]; BXPC-3, read-out: inhibition rate on the endocytosis of LPGL liposome in BxPC3 cells, serum-free medium, without ultrasound stimulation): 13.4%

SMILES: O=c1c(-c2ccc(O)cc2)coc2cc(O)cc(O)c12 [genistein]
- inhibition at 200 µM (BxPC3 cells [3]; [9]): 52.5%
- inhibition at 200 µM (BxPC3 cells [3]; [10]): 28.9%
- inhibition at 200 µM (BxPC3 cells [3]; [11]): 57.6%

SMILES: Nc1ccn([C@@H]2O[C@H](CO)[C@@H](O)C2(F)F)c(=O)n1 [GEM, gemcitabine]
- side effects: body weight, white blood cell (WBC) and blood platelet ([4]; during treatment / end of the 36-day experiment): distinct body weight loss, and hematological damage on sharp decrease of white blood cell (WBC) and blood platelet
- H&E staining of excised tumors, vs LPL liposome and PBS ([4]; end of the 36-day experiment): much less densely populated cells
- distribution of apoptotic cells in tumor (TUNEL assay) ([4]; end of the 36-day experiment): merely existed around the tumor periphery
- change of tumor volume ([4]; i.v. every two days, four times, dose equivalent to GEM 10 mg/kg, ultrasound on tumor 20 min): firstly delayed, but then recovered to grow when stopping administration
- apoptotic cells in BxPC3 spheroids (TUNEL staining) [5]: few apoptotic cells distributed around the spheroid's periphery
- morphology of BxPC3 spheroids (light microscope) [5]: no significant change in morphology
- bodyweight of mice ([6]; during treatment): gradually decreased
- content of AST, ALT, BUN and CRE relative to normal range ([6]; mice serum, end of the 34-day experiment): beyond the maximum of normal limit
- ALT [6, 12]: 81.1 ± 10.5 U/L
- AST [6, 12]: 218.6 ± 25.3 U/L
- BUN [6, 12]: 47.6 ± 5.0 mg/dL
- CRE [6, 12]: 0.68 ± 0.17 mg/dL
- cytotoxicity against 3D multicellular tumor spheroids of Huh7 [7]: dose-dependent cytotoxicity
- cytotoxicity against 3D multicellular tumor spheroids of BxPC3 [8]: dose-dependent cytotoxicity
